Values of other authors, collected in patent US8399018B2, “Controlled release ion channel modulator compositions and methods for the treatment of otic disorders” (priority 2008, dated 2013).

Tests used:
tinnitus = conditions: administered by IV
V2-R = conditions: infusion into the scala tympani
guinea pigs = conditions: chronic administration

For `CCN(CC)CC(=O)Nc1c(C)cccc1C` [Lidocaine], the “sufferers in whom noise associated with tinnitus is reduced or eliminated” value (tinnitus) is given as 60-80%.
For `Cc1ccccc1C(=O)Nc1ccc(C(=O)N2CCCC(N(C)C)c3ccccc32)cc1` (stereo not drawn) [OPC-31260], the “reduction of Meniere's disease symptoms” value (V2-R) is given as “marked reduction”.
In the case of `NC(=O)CC[C@@H]1NC(=O)[C@H](Cc2ccccc2)NC(=O)[C@H](Cc2ccc(O)cc2)NC(=O)[C@@H](N)CSSC[C@@H](C(=O)N2CCC[C@H]2C(=O)N[C@@H](CCCN=C(N)N)C(=O)NCC(N)=O)NC(=O)[C@H](CC(N)=O)NC1=O` [VP, vasopressin], the “induction of endolymphatic hydrops” value (guinea pigs) is listed as “induces endolymphatic hydrops”.
